Measured values: patent US11459315B2, “Modulators of methyl modifying enzymes, compositions and uses thereof” (Constellation Pharmaceuticals, Inc., priority 2017, dated 2022)
Read-outs that look alike come from different tables or passages of the source.

Tests used:
[1] = tested on: H3K27me3 mark in HeLa cells (EZH2); experiment: H3K27me3 Alpha Hela Assay (AlphaLISA); assay type: cell-based; settings: Homo sapiens, HeLa, 72 h, HeLa cells, 72 hrs; read-out: EZH2 Cell H3K27me3 Alpha HeLa (EC50 K27me3)
Outline: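 HeLa cells (1,000/well) treated with ten 3-fold compound doses for 72 h at 37 °C; lysates extracted and H3K27me3 detected by AlphaLISA with anti-K27me3 acceptor beads, biotinylated anti-H3 (3 nM) and streptavidin donor beads. EC50 from DMSO-normalized dose-response curves; duplicate plate assessed viability.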

PRC2 containing wt EZH2 = PRC2 containing wt EZH2 (Homo sapiens (Human), UniProt Q15910); experiment: EZH2 biochemical assay (IC50), 3H-SAM incorporation into biotinylated H3 peptide; settings: 30 pM PRC2 containing wt EZH2, 3-5 h pre-incubation
Chain of PRC2 containing wt EZH2 (Q15910 whole entry): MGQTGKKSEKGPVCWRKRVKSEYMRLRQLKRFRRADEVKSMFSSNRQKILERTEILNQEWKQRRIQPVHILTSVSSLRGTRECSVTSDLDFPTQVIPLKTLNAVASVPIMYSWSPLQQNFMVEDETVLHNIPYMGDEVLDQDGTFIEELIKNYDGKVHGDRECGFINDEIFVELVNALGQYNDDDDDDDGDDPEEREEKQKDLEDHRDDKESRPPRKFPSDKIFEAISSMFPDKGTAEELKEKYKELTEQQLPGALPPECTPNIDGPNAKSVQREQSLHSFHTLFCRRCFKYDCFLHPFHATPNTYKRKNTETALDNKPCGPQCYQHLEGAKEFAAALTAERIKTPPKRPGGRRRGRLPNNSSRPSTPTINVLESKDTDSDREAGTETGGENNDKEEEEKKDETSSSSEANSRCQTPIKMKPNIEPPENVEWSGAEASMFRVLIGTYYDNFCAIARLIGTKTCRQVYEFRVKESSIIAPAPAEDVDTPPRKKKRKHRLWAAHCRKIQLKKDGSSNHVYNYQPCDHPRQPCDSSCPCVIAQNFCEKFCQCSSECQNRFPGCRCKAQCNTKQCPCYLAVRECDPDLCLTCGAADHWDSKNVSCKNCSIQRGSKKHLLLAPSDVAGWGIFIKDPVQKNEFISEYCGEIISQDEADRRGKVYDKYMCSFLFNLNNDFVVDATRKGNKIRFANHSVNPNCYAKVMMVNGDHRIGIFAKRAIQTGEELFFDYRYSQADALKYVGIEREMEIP
Chain of PRC2 containing wt EZH2 (O75530 whole entry partner): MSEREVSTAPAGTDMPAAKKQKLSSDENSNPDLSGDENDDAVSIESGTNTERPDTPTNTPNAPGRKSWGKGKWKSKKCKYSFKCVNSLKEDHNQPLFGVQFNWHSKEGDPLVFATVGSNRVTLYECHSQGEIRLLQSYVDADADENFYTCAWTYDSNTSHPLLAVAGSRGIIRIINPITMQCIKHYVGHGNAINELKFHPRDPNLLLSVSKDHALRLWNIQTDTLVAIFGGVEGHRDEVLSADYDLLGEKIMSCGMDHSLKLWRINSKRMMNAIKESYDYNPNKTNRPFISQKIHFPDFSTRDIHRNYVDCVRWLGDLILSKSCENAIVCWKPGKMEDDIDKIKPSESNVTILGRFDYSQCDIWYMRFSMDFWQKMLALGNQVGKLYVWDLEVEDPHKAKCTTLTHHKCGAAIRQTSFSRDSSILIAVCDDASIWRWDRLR
Chain of PRC2 containing wt EZH2 (Q15022 whole entry partner): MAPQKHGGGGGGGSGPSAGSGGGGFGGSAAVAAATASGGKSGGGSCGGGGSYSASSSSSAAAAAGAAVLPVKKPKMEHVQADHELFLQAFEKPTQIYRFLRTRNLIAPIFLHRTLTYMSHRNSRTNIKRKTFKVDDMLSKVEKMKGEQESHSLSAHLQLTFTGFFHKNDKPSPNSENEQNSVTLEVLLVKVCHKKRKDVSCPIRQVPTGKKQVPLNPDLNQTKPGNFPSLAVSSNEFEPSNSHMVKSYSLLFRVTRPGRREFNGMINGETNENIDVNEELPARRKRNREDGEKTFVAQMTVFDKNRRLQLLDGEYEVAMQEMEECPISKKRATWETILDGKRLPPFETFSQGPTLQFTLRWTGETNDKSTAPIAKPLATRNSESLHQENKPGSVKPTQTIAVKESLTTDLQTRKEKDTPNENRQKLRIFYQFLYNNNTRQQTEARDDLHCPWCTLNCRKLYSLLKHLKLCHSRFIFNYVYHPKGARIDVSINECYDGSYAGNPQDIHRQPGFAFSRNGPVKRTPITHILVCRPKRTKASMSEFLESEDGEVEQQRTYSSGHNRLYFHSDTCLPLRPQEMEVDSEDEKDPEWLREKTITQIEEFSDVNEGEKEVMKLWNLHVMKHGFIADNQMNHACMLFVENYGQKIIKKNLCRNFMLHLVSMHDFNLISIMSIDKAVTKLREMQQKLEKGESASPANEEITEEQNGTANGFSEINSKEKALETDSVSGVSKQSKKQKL
Chain of PRC2 containing wt EZH2 (Q09028 whole entry partner): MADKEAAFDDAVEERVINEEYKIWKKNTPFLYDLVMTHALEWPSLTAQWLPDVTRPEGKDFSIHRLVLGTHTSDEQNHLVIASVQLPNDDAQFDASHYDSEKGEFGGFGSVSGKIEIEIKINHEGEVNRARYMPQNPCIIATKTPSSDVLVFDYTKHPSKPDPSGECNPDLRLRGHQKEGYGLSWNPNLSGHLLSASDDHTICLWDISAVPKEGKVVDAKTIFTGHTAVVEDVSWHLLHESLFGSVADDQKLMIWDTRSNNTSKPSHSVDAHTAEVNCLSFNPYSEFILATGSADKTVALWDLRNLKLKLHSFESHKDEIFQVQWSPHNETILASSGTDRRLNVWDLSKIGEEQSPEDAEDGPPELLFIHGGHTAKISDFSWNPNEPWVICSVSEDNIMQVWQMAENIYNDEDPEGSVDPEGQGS
Chain of PRC2 containing wt EZH2 (Q6ZN18 whole entry partner): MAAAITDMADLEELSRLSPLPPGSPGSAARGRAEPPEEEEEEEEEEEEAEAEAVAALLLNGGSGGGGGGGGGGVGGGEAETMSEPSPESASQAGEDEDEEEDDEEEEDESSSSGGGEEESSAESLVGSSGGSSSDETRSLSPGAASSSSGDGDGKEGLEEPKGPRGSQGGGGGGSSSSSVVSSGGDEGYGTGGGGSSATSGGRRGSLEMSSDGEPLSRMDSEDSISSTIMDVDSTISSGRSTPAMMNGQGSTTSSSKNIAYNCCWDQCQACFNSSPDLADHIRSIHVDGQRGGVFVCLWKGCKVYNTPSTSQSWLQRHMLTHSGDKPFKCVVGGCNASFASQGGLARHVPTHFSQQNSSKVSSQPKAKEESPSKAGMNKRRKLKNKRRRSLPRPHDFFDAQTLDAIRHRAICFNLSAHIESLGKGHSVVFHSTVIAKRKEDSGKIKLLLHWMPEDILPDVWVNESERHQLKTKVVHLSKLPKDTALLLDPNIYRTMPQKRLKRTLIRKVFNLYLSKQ
Outline: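 Activity was measured as ³H-methyl transfer to a biotinylated H3K27me1 peptide over 18-22 h at room temperature, with capture on streptavidin flash plates. The 30 pM wt-EZH2 PRC2 complex was first pre-incubated 3-5 h with compound, 450 nM SAM/450 nM ³H-SAM and 2 µM H3K27me3 activator (pH 8.5, 0.8% DMSO). Four-parameter fits gave IC50.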

| Structure (SMILES) | EC50 [1] [nM] | IC50 (PRC2 containing wt EZH2; read-out: EZH2 (IC50)) [nM] | IC50 (PRC2 containing wt EZH2; EZH2 (IC50)) [nM] |
| --- | --- | --- | --- |
| CNC1COC([C@@H](C)n2c(C)c(C(=O)NCc3c(SC)cc(C)[nH]c3=O)c3ccccc32)OC1 (stereo partly drawn) [Example 17, (R)-2-methyl-N-((6-methyl-4-(methylthio)-2-oxo-1,2-dihydropyridin-3-yl)methyl)-1-(1-(5-(methylamino)-1,3-dioxan-2-yl)ethyl)-1H-indole-3-carboxamide] | < 10 | < 0.5 | – |
| CSc1cc(C)[nH]c(=O)c1CNC(=O)c1c(C)n([C@H](C)C2CCN(CC(F)(F)F)CC2)c2ncccc12 [Example 25, (R)-2-methyl-N-((6-methyl-4-(methylthio)-2-oxo-1,2-dihydropyridin-3-yl)methyl)-1-(1-(1-(2,2,2-trifluoroethyl)piperidin-4-yl)ethyl)-1H-pyrrolo[2,3-b]pyridine-3-carboxamide] | < 10 | – | < 0.5 |
| CSc1cc(C)[nH]c(=O)c1CNC(=O)c1c(C)n([C@H](C)C2CCN(C3CC3)CC2)c2ncccc12 [Example 26, (R)-1-(1-(1-cyclopropylpiperidin-4-yl)ethyl)-2-methyl-N-((6-methyl-4-(methylthio)-2-oxo-1,2-dihydropyridin-3-yl)methyl)-1H-pyrrolo[2,3-b]pyridine-3-carboxamide] | < 10 | – | < 0.5 |
| CSc1cc(C)[nH]c(=O)c1CNC(=O)c1c(C)n([C@H](C)C2CCC(N3CC(OC(F)F)C3)CC2)c2cc(F)ccc12 (stereo partly drawn) [Example 29, 1-((R)-1-(4-(3-(difluoromethoxy)azetidin-1-yl)cyclohexyl)ethyl)-6-fluoro-2-methyl-N-((6-methyl-4-(methylthio)-2-oxo-1,2-dihydropyridin-3-yl)methyl)-1H-indole-3-carboxamide] | < 10 | < 0.5 | – |
| CSc1cc(C)[nH]c(=O)c1CNC(=O)c1c(C)n([C@H](C)CO)c2ccccc12 [Example 31, (R)-1-(1-hydroxypropan-2-yl)-2-methyl-N-((6-methyl-4-(methylthio)-2-oxo-1,2-dihydropyridin-3-yl)methyl)-1H-indole-3-carboxamide] | > 100 | > 5 | – |
| COC[C@@H](C)n1c(C)c(C(=O)NCc2c(SC)cc(C)[nH]c2=O)c2ccccc21 [Example 32, (R)-1-(1-methoxypropan-2-yl)-2-methyl-N-((6-methyl-4-(methylthio)-2-oxo-1,2-dihydropyridin-3-yl)methyl)-1H-indole-3-carboxamide] | 10 to 100 | – | < 0.5 |
| CCOC[C@@H](C)n1c(C)c(C(=O)NCc2c(SC)cc(C)[nH]c2=O)c2ccccc21 [Example 33, (R)-1-(1-ethoxypropan-2-yl)-2-methyl-N-((6-methyl-4-(methylthio)-2-oxo-1,2-dihydropyridin-3-yl)methyl)-1H-indole-3-carboxamide] | 10 to 100 | – | 0.5 to 5 |
| CSc1cc(C)[nH]c(=O)c1CNC(=O)c1c(C)n([C@@H](C)c2cnc(C)nc2)c2ccccc12 [Example 34, (S)-2-methyl-N-((6-methyl-4-(methylthio)-2-oxo-1,2-dihydropyridin-3-yl)methyl)-1-(1-(2-methylpyrimidin-5-yl)ethyl)-1H-indole-3-carboxamide] | > 100 | > 5 | – |
| CSc1cc(C)[nH]c(=O)c1CNC(=O)c1c(C)n([C@H](C)c2cnc(C)nc2)c2ccccc12 [Example 35, (R)-2-methyl-N-((6-methyl-4-(methylthio)-2-oxo-1,2-dihydropyridin-3-yl)methyl)-1-(1-(2-methylpyrimidin-5-yl)ethyl)-1H-indole-3-carboxamide] | > 100 | > 5 | – |
| CSc1cc(C)[nH]c(=O)c1CNC(=O)c1c(C)n([C@H](C)[C@H]2CCNC[C@@H]2F)c2ccccc12 [Example 37, 1-((R)-1-((3R,4R)-3-fluoropiperidin-4-yl)ethyl)-2-methyl-N-((6-methyl-4-(methylthio)-2-oxo-1,2-dihydropyridin-3-yl)methyl)-1H-indole-3-carboxamide] | 10 to 100 | – | < 0.5 |
| CSc1cc(C)[nH]c(=O)c1CNC(=O)c1c(C)n([C@H](C)C2CCNC[C@H]2F)c2ccccc12 (stereo partly drawn) [Example 38, 1-((1R)-1-((3S)-3-fluoropiperidin-4-yl)ethyl)-2-methyl-N-((6-methyl-4-(methylthio)-2-oxo-1,2-dihydropyridin-3-yl)methyl)-1H-indole-3-carboxamide] | 10 to 100 | – | < 0.5 |
| CSc1cc(C)[nH]c(=O)c1CNC(=O)c1c(C)n([C@H](C)C2CCN(C#N)CC2)c2ccccc12 [Example 39, (R)-1-(1-(1-cyanopiperidin-4-yl)ethyl)-2-methyl-N-((6-methyl-4-(methylthio)-2-oxo-1,2-dihydropyridin-3-yl)methyl)-1H-indole-3-carboxamide] | 10 to 100 | – | < 0.5 |
| CSc1cc(C)[nH]c(=O)c1CNC(=O)c1c(C)n([C@H](C)C2CCC(O)CC2)c2nc(C)ccc12 (stereo partly drawn) [Example 40, 1-((1R)-1-(4-hydroxycyclohexyl)ethyl)-2,6-dimethyl-N-((6-methyl-4-(methylthio)-2-oxo-1,2-dihydropyridin-3-yl)methyl)-1H-pyrrolo[2,3-b]pyridine-3-carboxamide] | > 100 | – | 0.5 to 5 |
| CSc1cc(C)[nH]c(=O)c1CNC(=O)c1c(C)n([C@H](C)[C@H]2CCN(C)C[C@@H]2F)c2ccccc12 [Example 42, 1-((R)-1-((3R,4R)-3-fluoro-1-methylpiperidin-4-yl)ethyl)-2-methyl-N-((6-methyl-4-(methylthio)-2-oxo-1,2-dihydropyridin-3-yl)methyl)-1H-indole-3-carboxamide] | < 10 | – | < 0.5 |
| CSc1cc(C)[nH]c(=O)c1CNC(=O)c1c(C)n([C@H](C)C2CCN(C)C[C@H]2F)c2ccccc12 (stereo partly drawn) [Example 43, 1-((1R)-1-((3S)-3-fluoro-1-methylpiperidin-4-yl)ethyl)-2-methyl-N-((6-methyl-4-(methylthio)-2-oxo-1,2-dihydropyridin-3-yl)methyl)-1H-indole-3-carboxamide] | 10 to 100 | – | < 0.5 |
| CSc1cc(C)[nH]c(=O)c1CNC(=O)c1c(C)n([C@H](C)C2CCC(F)(F)CC2)c2ccccc12 [Example 45, (R)-1-(1-(4,4-difluorocyclohexyl)ethyl)-2-methyl-N-((6-methyl-4-(methylthio)-2-oxo-1,2-dihydropyridin-3-yl)methyl)-1H-indole-3-carboxamide] | < 10 | – | < 0.5 |
| CSc1cc(C)[nH]c(=O)c1CNC(=O)c1c(C)n([C@H](C)c2ccc(N(C)C)cc2)c2ccccc12 [Example 46, (R)-1-(1-(4-(dimethylamino)phenyl)ethyl)-2-methyl-N-((6-methyl-4-(methylthio)-2-oxo-1,2-dihydropyridin-3-yl)methyl)-1H-indole-3-carboxamide] | 10 to 100 | – | < 0.5 |
| CSc1cc(C)[nH]c(=O)c1CNC(=O)c1c(C)n([C@@H](C)c2ccc(N(C)C)cc2)c2ccccc12 [Example 47, (S)-1-(1-(4-(dimethylamino)phenyl)ethyl)-2-methyl-N-((6-methyl-4-(methylthio)-2-oxo-1,2-dihydropyridin-3-yl)methyl)-1H-indole-3-carboxamide] | > 100 | – | 0.5 to 5 |
| CSc1cc(C)[nH]c(=O)c1CNC(=O)c1c(C)n([C@H](C)C2CCN(C3CC3)CC2)c2ccccc12 [Example 48, (R)-1-(1-(1-cyclopropylpiperidin-4-yl)ethyl)-2-methyl-N-((6-methyl-4-(methylthio)-2-oxo-1,2-dihydropyridin-3-yl)methyl)-1H-indole-3-carboxamide] | < 10 | – | < 0.5 |
| CSc1cc(C)[nH]c(=O)c1CNC(=O)c1c(C)n([C@H](C)C2CC(NC3COC3)C2)c2ccccc12 (stereo partly drawn) [Example 49, 2-methyl-N-((6-methyl-4-(methylthio)-2-oxo-1,2-dihydropyridin-3-yl)methyl)-1-((R)-1-(3-(oxetan-3-ylamino)cyclobutyl)ethyl)-1H-indole-3-carboxamide] | > 100 | 0.5 to 5 | – |
| CSc1cc(C)[nH]c(=O)c1CNC(=O)c1c(C)n([C@H](C)C2CCN(C3CC3)CC2)c2ncncc12 [Example 50, (R)-7-(1-(1-cyclopropylpiperidin-4-yl)ethyl)-6-methyl-N-((6-methyl-4-(methylthio)-2-oxo-1,2-dihydropyridin-3-yl)methyl)-7H-pyrrolo[2,3-d]pyrimidine-5-carboxamide] | < 10 | – | < 0.5 |
| CSc1cc(C)[nH]c(=O)c1CNC(=O)c1c(C)n([C@H](C)C2CCN(CCO)CC2)c2ccccc12 [Example 52, (R)-1-(1-(1-(2-hydroxyethyl)piperidin-4-yl)ethyl)-2-methyl-N-((6-methyl-4-(methylthio)-2-oxo-1,2-dihydropyridin-3-yl)methyl)-1H-indole-3-carboxamide] | > 100 | – | < 0.5 |
| CSc1cc(C)[nH]c(=O)c1CNC(=O)c1c(C)n([C@H](C)C2CN(CC(F)(F)F)C2)c2ccccc12 [Example 54, (R)-2-methyl-N-((6-methyl-4-(methylthio)-2-oxo-1,2-dihydropyridin-3-yl)methyl)-1-(1-(1-(2,2,2-trifluoroethyl)azetidin-3-yl)ethyl)-1H-indole-3-carboxamide] | 10 to 100 | – | 0.5 to 5 |
| CSc1cc(C)[nH]c(=O)c1CNC(=O)c1c(C)n([C@@H](C)C2CN(CC(F)(F)F)C2)c2ccccc12 [Example 55, (S)-2-methyl-N-((6-methyl-4-(methylthio)-2-oxo-1,2-dihydropyridin-3-yl)methyl)-1-(1-(1-(2,2,2-trifluoroethyl)azetidin-3-yl)ethyl)-1H-indole-3-carboxamide] | 10 to 100 | – | 0.5 to 5 |
